Earlier results in patent US7141607B1, “Methods and compositions for treating and inhibiting retinal neovascularization” (Insite Vision Incorporated, priority 2000, dated 2006).

System: retinal neovascularization
Details: IP injection on days 12, 14 and 16; same animal model

## CNC(=O)[C@H](Cc1ccccc1)NC(=O)[C@H](CC(C)C)[C@H](CSc1cccs1)C(=O)NO (relative stereo) [batimastat, [2-R-[1(S*),2R*,3S*]]-N^4-hydroxy-N^1-[2-(methylamino)-2-oxo-1-(phenylmethyl)ethyl]-2-(2-methylpropyl)-3-[(2-thienylthio)methyl]butanediamide]
  reduction in neovascularization: 72%
